The text below walks through data of patent US6248718A, “Lesion-directed dry dosage forms of antibacterial agents for the treatment of acute mucosal infections of the oral cavity” (priority 1999, dated 2001).

Data set [1] in a line: Concentrations of penicillin G potassium in saliva after oral ingestion (Example VIII). In kind it is in vivo, human. The conditions noted are these: for concentration in human saliva: 30-min intervals to 3 hours. How it is done: Eight healthy adults, four men and four women, volunteered for this study. Two men and two women were given 500 mg each, and two men and two women were given 250 mg of USP grade penicillin G potassium powder each by mouth, respectively. These two doses were chosen for the study because they have been used as the standard adult oral doses for systemic treatment of human bacterial infections.
In this study, the drug powder was suspended in one teaspoonful of water and swallowed by the test subjects two hours after breakfast, followed by drinking an 8 Oz. glass of water. The test subjects refrained from drinking or eating for the next three hours. Six samples of saliva were collected from each subject at 30-minute intervals in succession in the next three hours. An aliquot of 0.2 ml from each saliva sample was transferred to 3.8 ml of nutrient broth. The mixture of the latter was forced to pass a bacterial filter. Two (2) ml of the bacteria-free filtrate was pipetted out into a sterile test tube and inoculated with 0.1 ml of a 1:1,000 dilution of a 12 hours broth culture of Staphylococcus aureus ATCC 29213 and incubated at 37° C. for 18 hours. A series of test tubes containing known concentrations, from 6.2 mcg/ml to 0.16 mcg/ml, of penicillin G potassium in 2 ml of nutrient broth was also inoculated with the same broth culture as standards.
Since 0.75 mcg/ml is the consistent MIC observed in this laboratory for Staphylococcus aureus ATCC 29213, the penicillin concentration in the saliva-broth filtrate must have been at a level below 0.75 mcg/ml.

For data set [2], the system named is bacteria in saliva of healthy volunteers. Nature of the data set: Inhibition of bacterial growth in the saliva in vivo (Example V). The conditions noted are these: for bacterial colonies from saliva after topical medication: 1 hour, 0.1 ml saliva. How it is done:
Five healthy adult volunteers, three men and two women, were asked to refrain from drinking or eating for two hours after breakfast. At the end of two hours, an aliquot of 0.1 ml of saliva was pipetted from the mouth of each volunteer and spread over the surface of a sheep blood agar plate with a sterile plastic loop. The inoculated blood agar plate was incubated in an aerobic atmosphere containing 5% CO2 as pre-medication control. Then 100 mg, 50 mg, 20 mg, 10 mg and 2 mg of penicillin G potassium dry powder, USP grade, were placed in the right buccal pouch with a spatula between the cheek and the lower gum of each volunteer, respectively. The volunteers were asked to retain the dissolved penicillin powder at the site of medication as concentrated as possible, not to be diluted by saliva from other parts of the mouth for one hour.
At the end of one hour, 0.1 ml of saliva from each volunteer was pipetted from the right buccal pouch where the medication was placed, and inoculated and spread onto the surface of a sheep blood agar plate. The inoculum was spread with a sterile plastic loop.

The test system of data set [3] is microbes in the exudate covering the canker ulcer. Briefly: Congo red negative stain microscopy of canker ulcer exudate (Example VI). The conditions noted are these: penicillin G potassium 50 mg four times a day, about 48 hours. In kind it is in vivo, human oral flora. The procedure:
Before the initiation of treatment, a small amount of exudate was scraped off the grayish-white covering of the ulcer with a toothpick and mixed with a drop of aqueous solution of Congo red for a negative stain smear. After the dried smear was exposed to concentrated hydrochloric acid vapor, the negative-stained microorganisms were examined microscopically.
On day 2, about 48 hours after the medication was initiated, the patients collected an early morning sample of saliva immediately after getting up and submitted it to the laboratory for culture. While in the laboratory, a second sample of the residual exudate covering the ulcer was taken from the patient for a post-treatment follow-up microscopy after Congo red negative staining.

Data set [4] is described as follows: Topical dry dosage treatment of minor aphthous ulcers, gingivitis and periodontal infections. It is filed as in vivo, human. Conditions: 50 mg dry dosage form, four times a day. The text has this:
The administration of the medicament depends upon the type of infection to be treated and the type and dosage of the antibacterial agent used. The appropriate antibacterial agent, dosage and treatment regimen can readily be determined by someone having ordinary skill in this art. […] Thorough tooth cleaning is advised prior to introduction of the medicament to an infected area.

A further data set concerns bacteria in human saliva. Nature of the data set: Inhibition of bacterial growth in human saliva in vitro (Example IV). The conditions noted are these: for bacterial growth from treated saliva: 1 h, aerobic blood agar. In kind it is cell-based. How it is done:
For this study, five healthy adult volunteers, three men and two women, were asked to refrain from drinking and eating for two hours after breakfast. At the end of two hours, about five (5) ml of saliva was obtained from the oral cavity of each volunteer. Aliquots of 0.1 ml of saliva were pipetted immediately from each saliva sample and spread over the surface of two 5% sheep blood agar plates with a sterile plastic loop. One inoculated blood agar plate was incubated in an aerobic atmosphere containing 5% CO2, and the other anaerobically at 37° C. for 18 hours, as untreated controls.
Aliquots of 0.2 ml of the saliva from each volunteer's sample were pipetted into sterile test tubes, and labeled from No. 2 to No. 13. Five equal doses of dry powder of the USP grade penicillin G potassium salt, 200 mg each, were weighed and put into five sterile test tubes, all labeled No. 1. The dry powder of antibiotic was dissolved in 0.4 ml saliva obtained from each of the five volunteers to constitute an initial concentration of antibiotic concentration of […] in saliva. An aliquot of 0.2 ml of the saliva antibiotic solution was pipetted from tube No. 1 into tube No. 2. After having been thoroughly mixed, 0.2 ml of the content in tube No. 2 was pipetted to tube No. 3, and so forth continuously in succession to make a serial double dilution of penicillin G potassium solutions in saliva through tube No. 13. Finally, the test tubes contained different concentrations of penicillin G potassium in the saliva of five volunteers, as follows.
The mixtures of antibiotic and saliva in the test tubes were incubated at 37° C. One hour later, an aliquot of 0.1 ml was pipetted from the content of each tube, first dropped in the center of a blood agar plate and then spread to the periphery of the plate surface. The plates were incubated aerobically at 37° C. with 5% carbon dioxide in the atmosphere for 18 hours and were examined for bacterial growth.

Entries after “also recorded” stand apart in the source; their conditions may differ. Bounds are passed on as bounds.

In the case of `CC1(C)S[C@@H]2[C@H](NC(=O)Cc3ccccc3)C(=O)N2[C@H]1C(=O)O` [penicillin G potassium], the “concentration in human saliva” value in data set [1] (oral ingestion of 250 mg) and in data set [1] (oral ingestion of 500 mg) was < 15 µg/mL throughout. Moreover, in data set [1] (oral ingestion of 250 or 500 mg, S. aureus ATCC 29213, 48 tubes), the “bacterial growth in saliva-broth filtrate” value is listed as “vigorous bacterial growth”. Besides, the “bacterial colonies from saliva after topical medication” value in data set [2] (2 mg powder) is on record as “a few isolated bacterial colonies; also recorded: partial inhibition of growth”; in data set [2] (10 mg powder), “no bacterial colonies”; in data set [2] (20 mg powder), “no bacterial colonies”; in data set [2] (50 mg powder), “no bacterial colonies”; in data set [2] (100 mg powder) it was “no bacterial colonies”. The “dose required for total cessation of bacterial growth in small pocket of saliva” value in data set [2] (powder, one-hour medication) was “at least 10 mg”. In addition, in data set [3], the “microbes in exudate after topical treatment” value is reported as “Only very rare cocci were found; also recorded: practically eliminated”. Besides, the “patients with complete relief of pains within about 48 hours” value in data set [4] is “over 90%”. In data set [4], the “time to complete relief of pains” value was ≤ 48 h. The entries for the “bacterial growth from treated saliva” value with bacteria in human saliva (1 mg/ml) and in the data set with bacteria in human saliva (2 mg/ml or above) were “Scattered bacterial colonies began to appear; also recorded: the inhibition is not complete; also recorded: A few surviving or uninhibited bacteria grew into colonies” and “No bacterial colonies were visible; also recorded: practically inhibits the growth of all of the salivary bacteria; also recorded: either destroyed or totally inhibited”, respectively. Also, the MIC with bacteria in human saliva (Homo sapiens, read-out: concentration sufficient to kill or inhibit practically all salivary bacteria) was in the range of 1000 to 2000 µg/mL.
